Experimental data as given in PubChem BioAssay AID206 (DTP/NCI, 2004).
Values joined by “and” are separate entries in the source; they are usually repeats but may differ in a detail not shown here. Equal values may be shown once. Records with an inconclusive call do not appear.

Test system: nude mice, HT29 intrarenal xenograft, tumor weight T/C
Assay: NCI In Vivo Anticancer Drug Screen. Data for tumor model HT29;CX-1 Human Adenocarcinoma (MER+) (intrarenal inoculation) in NU/NU Swiss (nude) mice
Settings: endpoint: mean tumor weight change, higher = larger tumour
Summary of the method: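 Mice with transplanted tumors are dosed with compound while controls get vehicle only. Survival or tumor burden is then assessed per group, and the treated value is expressed relative to control.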

[1] = dose: 36.0 mg/kg/injection, schedule: Q04DX004 (sc), vehicle: saline with Tween-80
[2] = dose: 72.0 mg/kg/injection, schedule: Q04DX004 (sc), vehicle: saline with Tween-80
[3] = dose: 144.0 mg/kg/injection, schedule: Q04DX004 (sc), vehicle: saline with Tween-80
[4] = dose: 50.0 mg/kg/injection, schedule: Q04DX004 (sc), vehicle: saline with Tween-80
[5] = dose: 100.0 mg/kg/injection, schedule: Q04DX004 (sc), vehicle: saline with Tween-80
[6] = dose: 200.0 mg/kg/injection, schedule: Q04DX004 (sc), vehicle: saline with Tween-80
[7] = dose: 300.0 mg/kg/injection, schedule: Q04DX004 (sc), vehicle: saline with Tween-80
[8] = dose: 400.0 mg/kg/injection, schedule: Q04DX004 (sc), vehicle: saline with Tween-80
[9] = dose: 600.0 mg/kg/injection, schedule: Q04DX004 (sc), vehicle: saline with Tween-80
[10] = dose: 1200.0 mg/kg/injection, schedule: Q04DX004 (sc), vehicle: saline with Tween-80
[11] = dose: 150.0 mg/kg/injection, schedule: Q04DX004 (sc), vehicle: saline with Tween-80
[12] = dose: 50.0 mg/kg/injection, schedule: Q04DX004 (sc), vehicle: saline
[13] = dose: 100.0 mg/kg/injection, schedule: Q01DX010 (sc), vehicle: saline with Tween-80
[14] = dose: 200.0 mg/kg/injection, schedule: Q01DX010 (sc), vehicle: saline with Tween-80

Q: With CCCCCCCCSC1=C(Cl)C(=O)C(OC)=C(OC)C1=O as the molecule, how does the T/C (dose: 18.0 mg/kg/injection, schedule: Q04DX004 (sc), vehicle: saline with Tween-80) read?
A: 96 % of control

Q: And the T/C [1]?
A: 82 % of control

Q: What about the T/C [2] of the same molecule?
A: 118 % of control

Q: And the T/C [3]?
A: 59 % of control

Q: Which T/C [4] does the source give for Cc1cc2cc3cc(C)c(N)cc3nc2cc1N here?
A: 86 % of control

Q: And the T/C [5]?
A: 90 % of control

Q: What about the T/C [6] of the same molecule?
A: 82 % of control

Q: What about the T/C [7] of the same molecule?
A: 89 % of control

Q: What about the T/C [8] of the same molecule?
A: 66 % of control

Q: What about the T/C [9] of the same molecule?
A: 21 % of control

Q: And the T/C [10]?
A: 37 % of control

Q: And the T/C (dose: 2400.0 mg/kg/injection, schedule: Q04DX004 (sc), vehicle: saline with Tween-80)?
A: 45 % of control

Q: For Nc1ccc(C(OC(=O)c2cc3ccccc3c(Cc3c(O)c(C(=O)OC(c4ccc(N)cc4)(c4ccc(N)cc4)c4ccc(N)cc4)cc4ccccc34)c2O)(c2ccc(N)cc2)c2ccc(N)cc2)cc1, which T/C [1] is on record?
A: 118 % of control

Q: What about the T/C [2] of the same molecule?
A: 70 % of control

Q: And the T/C [3]?
A: 68 % of control

Q: What about the T/C [11] of the same molecule?
A: 94 % of control

Q: What about the T/C [7] of the same molecule?
A: 55 % of control

Q: Which T/C (dose: 25.0 mg/kg/injection, schedule: Q04DX004 (sc), vehicle: water) does the source give for CCCCCCCCCCC(OC(C)=O)C1CCC(C2CCC(C(O)CCCCCCCCCCCCC3C=C(C)OC3=O)O2)O1 (stereo not drawn) here?
A: 119 % of control

Q: What about the T/C (dose: 50.0 mg/kg/injection, schedule: Q04DX004 (sc), vehicle: water) of the same molecule?
A: 92 % of control

Q: Which T/C (dose: 300.0 mg/kg/injection, schedule: Q04DX004 (sc), vehicle: Klucel (hydroxypropylcellulose) (HPC)) does the source give for C[Si](C)(C)OSc1ccccc1[N+](=O)[O-] here?
A: 79 % of control

Q: And the T/C (dose: 600.0 mg/kg/injection, schedule: Q04DX004 (sc), vehicle: Klucel (hydroxypropylcellulose) (HPC))?
A: 61 % of control

Q: And the T/C (dose: 1200.0 mg/kg/injection, schedule: Q04DX004 (sc), vehicle: Klucel (hydroxypropylcellulose) (HPC))?
A: 107 % of control

Q: And the T/C (dose: 2400.0 mg/kg/injection, schedule: Q04DX004 (sc), vehicle: Klucel (hydroxypropylcellulose) (HPC))?
A: 93 % of control

Q: Which T/C (dose: 12.5 mg/kg/injection, schedule: Q04DX004 (sc), vehicle: saline) does the source give for ClCC[Se](Cl)(Cl)c1ccccc1 here?
A: 154 % of control

Q: And the T/C [12]?
A: 100 % of control

Q: For NC(=O)c1ncn2c(=O)n(CCCl)nnc12, which T/C (dose: 25.0 mg/kg/injection, schedule: Q04DX004 (sc), vehicle: suspension in saline) is on record?
A: 214 % of control

Q: What about the T/C (dose: 50.0 mg/kg/injection, schedule: Q04DX004 (sc), vehicle: suspension in saline) of the same molecule?
A: 72 % of control

Q: Which results are given for ClCC[N+]12CC[N+](CCCl)(CC1)C2?
A: T/C (dose: 50.0 mg/kg/injection, schedule: Q01DX010 (sc), vehicle: saline with Tween-80): 37 % of control; T/C (dose: 75.0 mg/kg/injection, schedule: Q04DX004 (sc), vehicle: water): 101 % of control; T/C [13]: 90 % of control; T/C (dose: 150.0 mg/kg/injection, schedule: Q04DX004 (sc), vehicle: water): 107 % of control; T/C [14]: 96 % of control; T/C (dose: 300.0 mg/kg/injection, schedule: Q04DX004 (sc), vehicle: water): 98 % of control and 101 % of control; T/C (dose: 600.0 mg/kg/injection, schedule: Q04DX004 (sc), vehicle: water): 43 % of control

Q: For CSc1cc(=O)n2c3ccccc3c3ccnc1c32, which T/C (dose: 80.0 mg/kg/injection, schedule: Q04DX004 (sc), vehicle: saline with Tween-80) is on record?
A: 88 % of control

Q: What about the T/C (dose: 160.0 mg/kg/injection, schedule: Q04DX004 (sc), vehicle: saline with Tween-80) of the same molecule?
A: 91 % of control

Q: And the T/C (dose: 320.0 mg/kg/injection, schedule: Q04DX004 (sc), vehicle: saline with Tween-80)?
A: 110 % of control

Q: And the T/C (dose: 640.0 mg/kg/injection, schedule: Q04DX004 (sc), vehicle: saline with Tween-80)?
A: 58 % of control

Q: For COc1cc2c(cc1O)N=C[C@@H]1CCC(O)N1C2=O (mixture of isomers), which T/C (dose: 10.0 mg/kg/injection, schedule: Q04DX004 (sc), vehicle: suspension in saline) is on record?
A: 64 % of control

Q: For O=C(O)C(CSC(c1ccccc1)(c1ccccc1)c1ccccc1)N=Cc1cccs1 (stereo not drawn), which T/C (dose: 200.0 mg/kg/injection, schedule: Q04DX004 (sc), vehicle: suspension in saline) is on record?
A: 12 % of control

Q: Which results are given for COc1ccc(C(=O)/C(Br)=C/C(=O)O)cc1?
A: T/C (dose: 12.5 mg/kg/injection, schedule: Q01DX010 (sc), vehicle: saline): 73 % of control; T/C (dose: 25.0 mg/kg/injection, schedule: Q01DX010 (sc), vehicle: saline): 122 % of control; T/C (dose: 50.0 mg/kg/injection, schedule: Q01DX010 (sc), vehicle: saline): 56 % of control

Q: Cc1c(N)nc([C@H](CC(N)=O)NC[C@H](N)C(N)=O)nc1C(=O)N[C@H](C(=O)N[C@H](C)[C@@H](O)CC(=O)N[C@H](C(=O)NC(O[C@@H]1O[C@@H](C)[C@@H](N)[C@@H](O)[C@H]1O)C(O)c1nc(-c2nc(C(=O)NCCCCN)cs2)cs1)[C@@H](C)O)[C@@H](O[C@@H]1O[C@@H](CO)[C@@H](O)[C@H](O)[C@@H]1O[C@H]1O[C@H](CO)[C@@H](O)[C@H](OC(N)=O)[C@@H]1O)c1c[nH]cn1 (stereo partly drawn) was tested. Which T/C (dose: 4.0 mg/kg/injection, schedule: Q04DX004 (sc), vehicle: saline) did it give?
A: 104 % of control

Q: What about the T/C (dose: 8.0 mg/kg/injection, schedule: Q04DX004 (sc), vehicle: saline) of the same molecule?
A: 68 % of control

Q: What about the T/C (dose: 16.0 mg/kg/injection, schedule: Q04DX004 (sc), vehicle: saline) of the same molecule?
A: 73 % of control

Q: What about the T/C (dose: 32.0 mg/kg/injection, schedule: Q04DX004 (sc), vehicle: saline) of the same molecule?
A: 28 % of control

Q: For CN=C(N)N/N=C(\c1ccccc1)c1ccc(Br)cc1, which T/C [4] is on record?
A: 90 % of control and 92 % of control and 104 % of control

Q: For Nc1cc(Cl)c2[nH]cnc2n1, which T/C (dose: 100.0 mg/kg/injection, schedule: Q04DX004 (sc), vehicle: water) is on record?
A: 160 % of control

Q: What about the T/C (dose: 400.0 mg/kg/injection, schedule: Q04DX004 (sc), vehicle: water) of the same molecule?
A: 96 % of control

Q: With COc1cc(C(=O)N/N=C/c2cccc([N+](=O)[O-])c2)cc(OC)c1OC as the molecule, how does the T/C [11] read?
A: 91 % of control

Q: What about the T/C [9] of the same molecule?
A: 70 % of control

Q: And the T/C [10]?
A: 120 % of control

Q: How did the T/C (dose: 200.0 mg/kg/injection, schedule: Q01DX010 (sc), vehicle: Klucel (hydroxypropylcellulose) (HPC)) turn out when CCCC(=O)OCc1cc(=O)n(C)c2c3c4c(cc12)c(C)cc(=O)n4CO3 was run?
A: 71 % of control

Q: CC1(C)CC(=O)C(CSC(=O)c2ccccc2)C(=O)C1 was tested. Which T/C (dose: 25.0 mg/kg/injection, schedule: Q01DX010 (sc), vehicle: Klucel (hydroxypropylcellulose) (HPC)) did it give?
A: 79 % of control

Q: What about the T/C (dose: 100.0 mg/kg/injection, schedule: Q01DX010 (sc), vehicle: Klucel (hydroxypropylcellulose) (HPC)) of the same molecule?
A: 120 % of control

Q: How did the T/C (dose: 75.0 mg/kg/injection, schedule: Q04DX004 (sc), vehicle: saline with Tween-80) turn out when CC(=O)CC(C)=O.CC(=O)CC(C)=O.O=N[O-].O=N[O-].[Co] was run?
A: 52 % of control

Q: What about the T/C [11] of the same molecule?
A: 92 % of control

Q: And the T/C [7]?
A: 48 % of control

Q: With BrCC[Se]c1ccccc1 as the molecule, how does the T/C [6] read?
A: 16 % of control

Q: What does the source list for CC1=C(/C=C/C(C)=C/C=C/C(C)=C/CO)C(C)(C)CCC1?
A: T/C [5]: 82 % of control; T/C [6]: 94 % of control; T/C [8]: 96 % of control; T/C (dose: 800.0 mg/kg/injection, schedule: Q04DX004 (sc), vehicle: saline with Tween-80): 121 % of control

Q: For O=S(=O)(O)O.[NH-]C1CCCCC1[NH-].[Pt+2] (stereo not drawn), which T/C (dose: 0.62 mg/kg/injection, schedule: Q01DX010 (sc), vehicle: dextrose) is on record?
A: 21 % of control

Q: For COc1ccc2cc1Oc1ccc(cc1)C[C@H]1c3cc(c(OC)cc3CCN1C)Oc1c(OC)c(OC)cc3c1[C@H](C2)N(C)CC3, which T/C [13] is on record?
A: 102 % of control

Q: What about the T/C [14] of the same molecule?
A: 33 % of control

Q: And the T/C (dose: 400.0 mg/kg/injection, schedule: Q01DX010 (sc), vehicle: saline with Tween-80)?
A: 28 % of control

Q: What about the T/C (dose: 800.0 mg/kg/injection, schedule: Q01DX010 (sc), vehicle: saline with Tween-80) of the same molecule?
A: 27 % of control

Q: Which results are given for CC(=O)C1=C(O)C2(O)C(=O)c3c(c(C)c4ccc(C)c(O)c4c3O)CC2C(N)C1=O (stereo not drawn)?
A: T/C (dose: 25.0 mg/kg/injection, schedule: Q04DX004 (sc), vehicle: saline): 153 % of control; T/C [12]: 173 % of control; T/C (dose: 100.0 mg/kg/injection, schedule: Q04DX004 (sc), vehicle: saline): 102 % of control; T/C (dose: 200.0 mg/kg/injection, schedule: Q04DX004 (sc), vehicle: saline): 109 % of control
